These results are taken from patent publication US12378250B2, “Tricyclic compound as IRAK4 inhibitor” (KOREA RESEARCH INSTITUTE OF CHEMICAL TECHNOLOGY, priority 2018, dated 2025).

The target of one assay is T1, IRAK4 enzyme (Homo sapiens, UniProt Q9NWZ3).
T1 sequence (Q9NWZ3 1-460): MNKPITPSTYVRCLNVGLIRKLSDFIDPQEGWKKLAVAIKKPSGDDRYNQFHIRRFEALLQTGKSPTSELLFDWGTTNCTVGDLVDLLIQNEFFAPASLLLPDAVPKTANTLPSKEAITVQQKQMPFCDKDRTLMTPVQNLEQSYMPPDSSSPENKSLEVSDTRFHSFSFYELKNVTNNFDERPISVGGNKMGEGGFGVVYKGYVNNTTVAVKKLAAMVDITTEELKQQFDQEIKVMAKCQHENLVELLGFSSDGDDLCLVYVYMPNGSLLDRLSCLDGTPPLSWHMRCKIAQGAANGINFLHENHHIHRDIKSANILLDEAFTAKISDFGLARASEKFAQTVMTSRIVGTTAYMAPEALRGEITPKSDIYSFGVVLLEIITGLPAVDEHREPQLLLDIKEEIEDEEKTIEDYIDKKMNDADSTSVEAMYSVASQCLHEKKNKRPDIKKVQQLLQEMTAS
The assay is described as follows: IRAK4 enzyme inhibition degree (bead-based kinase assay, peptide substrate BMKC-2, 100 μM ATP). To be noted: for inhibition at 1 µM: compound 1 μM. Type of assay: biochemical. The method, then: 2.5 μl of a compound diluted to 4-fold of a final concentration was put into a 384-well white plate (low volume). 2.5 μl of 0.4 ng/μl IRAK4 enzyme was added thereto, and the resulting mixture was totally reacted for 10 minutes. 5 μl of a mixed liquid of a 6 μM peptide substrate (BMKC-2) and 100 μM ATP was added thereto, the resulting mixture was reacted at room temperature for 60 minutes, then 2.5 μl of 10 mM EDTA was added thereto, and the resulting mixture was reacted again for 10 minutes. 40 nM anti-phospho Thr antibody was aliquoted to 2.5 μl each, 5 μl of a mixed solution of a 160 μl/ml acceptor bead and a donor bead was added thereto, and then the resulting mixture was reacted at room temperature for 60 minutes. Fluorescence signals were measured using a bead experimental apparatus (Fusion alpha-FP Microplate Reader, Perkin Elmer Inc.).
From the detected signal, an activity inhibition rate [% inhibition degree=(the average value of a compound−the average value of a negative control)/(the average value of a positive control−the average value of a negative control)×100] was calculated, and is shown in [Table 1]. Further, a % inhibition degree of the compound at each concentration was obtained, and then a 50% inhibition concentration (IC50 value) was analyzed by a non-linear regression analysis.

Assay [1] has as its system NF-κB promoter, THP1-Lucia™ NF-κB cell line. In words: NF-κB promoter inhibition, THP1-Lucia NF-κB cell line. Type of assay: cell-based. To be noted: 100 ng/ml LPS, 24 hours, read-out: NF-κB, % inhibition degree. The method, then: (§1) A THP1-Lucia™ NF-κB cell line (Invivogen) was used in an NF-κB inhibition experiment, and a THP1-Lucia™ ISG cell line was used in an ISG inhibition experiment. In the NF-κB inhibition experiment, cells were planted at a density of 1×10^4 cells/well in a 96-well plate, and in the ISG inhibition experiment, cells were planted at a density of 2×10^4 cells/well in a 96-well plate. The cells were treated with a compound diluted to 4-fold of a final concentration, and totally cultured for 30 minutes. NF-κB was treated with 100 ng/ml lipopolysaccharide (LPS), ISG was treated with a stimulator of 1 μg/ml Poly(dA:dT)/LyoVec, and NF-κB and ISG were cultured for 24 hours. 10 μl of a cell supernatant was taken and transferred to a 96-well plate. 50 μl of a Quanti-luc solution was aliquoted using an automatic aliquoter of a measurer (Envision Multilabel Plate Reader, Perkin Elmer, Inc.), and light emission signals were measured.

The subject of assay [2] is IFN-α secretion, peripheral blood mononuclear cells (PBMCs). The assay is described as follows: Suppression of IFN-α secretion in ODN2216-treated PBMCs (ELISA). Type of assay: cell-based. To be noted: PBMC, 500 nM ODN2216, 72 hours, read-out: IFN-α, % inhibition degree. Here is the method:
(§2) Peripheral blood mononuclear cells (PBMCs) isolated from whole blood were distributed in a 96-well plate. TNF-α was aliquoted at a density of 1×10^5 cells/well, IFN-α was aliquoted at a density of 2×10^5 cells/well, and TNF-α and IFN-α were treated with a compound diluted to 4-fold of a final concentration and totally cultured for 30 minutes. TNF-α was treated with 100 ng/ml lipopolysaccharide (LPS), IFN-α was treated with 500 nM ODN2216 (CpGTLR9 stimulator), and TNF-α and IFN-α were further cultured for 24 hours and 72 hours, respectively. An enzyme-linked immunosorbent assay (ELISA) was performed on TNF-α and IFN-α using an ELISA kit manufactured by BD Biosciences and an ELISA kit manufactured by PBL Assay Science, Inc., respectively. A cell supernatant and a standard drug were put into the ELISA plates and reacted for 2 hours. The plates were washed and a measurement antibody and streptavidin-HRP were sequentially added thereto. After the plates were washed, a TMB substrate was added thereto and reacted in a dark place. The reaction was stopped by adding a stop solution thereto, and the absorbance at 450 nm and 570 nm was measured using an absorber (OPTIMax tunable microplate reader, molecular devices). The experimental results are shown in [Table 2].
(ELISA stands for enzyme-linked immunosorbent assay.)

Assay [3] concerns TNF-α secretion, peripheral blood mononuclear cells (PBMCs). In words: Suppression of TNF-α secretion in LPS-treated PBMCs (ELISA). To be noted: PBMC, 100 ng/ml LPS, 24 hours, read-out: TNF-α, % inhibition degree. Type of assay: cell-based. The method, then:
as §2

The subject of assay [4] is ISG promoter, THP1-Lucia™ ISG cell line. The assay is described as follows: ISG promoter inhibition, THP1-Lucia ISG cell line. The format is cell-based. To be noted: 1 μg/ml Poly(dA:dT)/LyoVec, 24 hours, read-out: ISG, % inhibition degree. Here is the method: as §1

Turning to `CCOC(=O)c1ccc2[nH]c3ncnc(N[C@H]4CC[C@H](N5CCOCC5)CC4)c3c2c1` [Compound 5ba, ethyl 4-((trans-4-morpholinocyclohexyl)amino)-9H-pyrimido[4,5-b]indole-6-carboxylate], it took 29 nM to reach half-maximal inhibition on IRAK4 enzyme (IC50). The inhibition (usually the relative decrease from the control value, in per cent) at 1 µM at IRAK4 enzyme came out at 83%; in assay [1], 89%; in assay [2] it was 73.9%; in assay [3], 41.3%; in assay [4] it was 78%. In addition, the inhibition at 0.1 µM in assay [1] was determined as 48%; in assay [2], 27%; in assay [3], 31.7%; in assay [4], 37%.

As for `Cn1cc(-c2ccc3[nH]c4ncnc(N[C@H]5CC[C@H](N(C)C)CC5)c4c3c2)cn1` [Compound 6abb, trans-N1,N1-dimethyl-N4-(6-(1-methyl-1H-pyrazol-4-yl)-9H-pyrimido[4,5-b]indol-4-yl)cyclohexane-1,4-diamine], on IRAK4 enzyme, the IC50 (in general, the concentration at which inhibition is half-maximal) came to 10 nM. Also, the inhibition at 1 µM against IRAK4 enzyme is 82%; in assay [1] it was 83%; in assay [2] it was 90.4%; in assay [3], 79.4%; in assay [4], 73%. The inhibition at 0.1 µM in assay [1] stood at 50%; in assay [2], 54%; in assay [3], 17.9%; in assay [4], 42%.

For `COC(=O)c1ccc2c(c1)[nH]c1ncnc(N[C@H]3CC[C@H](N4CCOCC4)CC3)c12` [Compound 5da, methyl 4-((trans-4-morpholinocyclohexyl)amino)-9H-pyrimido[4,5-b]indole-7-carboxylate], the IC50 against IRAK4 enzyme turned out to be 128 nM. In addition, the inhibition at 1 µM against IRAK4 enzyme stood at 99%; in assay [1] it was 30%; in assay [2] it was 40%; in assay [3], 40%; in assay [4], 20%. Further, the inhibition at 0.1 µM in assay [1] is 5%; in assay [2] it was 10%; in assay [3] it was 10%; in assay [4] it was 1%.

As for `Fc1ccc(-c2ccc3[nH]c4ncnc(N[C@H]5CC[C@H](N6CCOCC6)CC5)c4c3c2)c(F)c1` [Compound 6aam, 6-(2,4-difluorophenyl)-N-(trans-4-morpholinocyclohexyl)-9H-pyrimido[4,5-b]indole-4-amine], the IC50 against IRAK4 enzyme was found to be 244 nM. Besides, the inhibition at 1 µM was 37% against IRAK4 enzyme; 11% in assay [1]; 55% in assay [2]; 28% in assay [3]; under 1% in assay [4]. Besides, the inhibition at 0.1 µM in assay [1] was under 1%; in assay [2], 9%; in assay [3] it was 5%; in assay [4] it was under 1%.

On to `Cn1cc(-c2ccc3[nH]c4nccc(N[C@H]5CC[C@H](N6CCOCC6)CC5)c4c3c2)cn1` [Compound 17a], for which the inhibition at 1 µM turned out to be 100% on IRAK4 enzyme; 78% in assay [1]; 103% in assay [2]; 75% in assay [3]; 93% in assay [4]. The inhibition at 0.1 µM in assay [1] was 31%; in assay [2], 67%; in assay [3], 22%; in assay [4] it was 14%.

Turning to `c1cc(-c2ccc3c(c2)[nH]c2ncnc(N[C@H]4CC[C@H](N5CCOCC5)CC4)c23)ccn1` [Compound 6caa, N-(trans-4-morpholinocyclohexyl)-7-(pyridin-4-yl)-9H-pyrimido[4,5-b]indole-4-amine], at IRAK4 enzyme, the IC50 was 1360 nM. Moreover, the inhibition at 1 µM on IRAK4 enzyme is 50%; in assay [1], 10%; in assay [2] it was 60%; in assay [3], 40%; in assay [4] it was 10%. Moreover, the inhibition at 0.1 µM in assay [1] was 5%; in assay [2], 40%; in assay [3], 5%; in assay [4], 1%.

For the compound `Fc1ccc(-c2ccc3[nH]c4ncnc(N[C@H]5CC[C@H](N6CCOCC6)CC5)c4c3c2)cc1` [Compound 6aan, 6-(4-fluorophenyl)-N-(trans-4-morpholinocyclohexyl)-9H-pyrimido[4,5-b]indole-4-amine], 61 nM corresponded to half-maximal inhibition against IRAK4 enzyme (IC50). Also, the inhibition at 1 µM against IRAK4 enzyme turned out to be 82%; in assay [1] it was 28%; in assay [2], 71%; in assay [3] it was 32%; in assay [4] it was 6%. Besides, the inhibition at 0.1 µM in assay [1] was under 1%; in assay [2], 28%; in assay [3], 9%; in assay [4], under 1%.

For `Cn1cc(-c2ccc3[nH]c4ncnc(Nc5ccc(N6CCNCC6)cc5)c4c3c2)cn1` [Compound 6agaa, 6-(1-methyl-1H-pyrazol-4-yl)-N-(4-(piperazin-1-yl)phenyl)-9H-pyrimido[4,5-b]indole-4-amine], it took 1140 nM to reach half-maximal inhibition against IRAK4 enzyme (IC50). Moreover, the inhibition at 1 µM came to 36% against IRAK4 enzyme; 24% in assay [1]; 65% in assay [2]; 27% in assay [3]; 16% in assay [4]. In addition, the inhibition at 0.1 µM was under 1% in assay [1], 39% in assay [2], 17% in assay [3] and 7% in assay [4].

In turn, `COc1ccc(-c2ccc3[nH]c4ncnc(N[C@H]5CC[C@H](N6CCOCC6)CC5)c4c3c2)cn1` [Compound 6aah, 6-(6-methoxypyridin-3-yl)-N-(trans-4-morpholinocyclohexyl)-9H-pyrimido[4,5-b]indole-4-amine] registered an IC50 against IRAK4 enzyme of 40 nM. For the same compound, the inhibition at 1 µM was 100% at IRAK4 enzyme; 63% in assay [1]; 79% in assay [2]; 67% in assay [3]; 47% in assay [4]. In addition, the inhibition at 0.1 µM in assay [1] came out at 19%; in assay [2] it was 15%; in assay [3] it was 16%; in assay [4] it was 10%.
